#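 Compound exposure: 48 hours, 5 concentrations, 96-well plates. Here, GI50 denotes the concentration required for 50% inhibition of growth. TGI: concentration producing complete growth inhibition.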
# Tests used:
# Experiment in all cases: growth of human tumour cells (NCI), 48 h
# [1] = system: 786-0 renal
# [2] = system: A498 renal
# [3] = system: ACHN renal
# [4] = system: BT-549 breast
# [5] = system: CAKI-1 renal
# [6] = system: CCRF-CEM leukemia
# [7] = system: COLO 205 colon
# [8] = system: EKVX NSCLC
# [9] = system: HCC-2998 colon
# [10] = system: HL-60(TB) leukemia
# [11] = system: HOP-62 NSCLC
# [12] = system: HOP-92 NSCLC
# [13] = system: HS 578T breast
# [14] = system: HT29 colon
# [15] = system: IGROV1 ovarian
# [16] = system: K-562 leukemia
# [17] = system: KM12 colon
# [18] = system: LOX IMVI melanoma
# [19] = system: MALME-3M melanoma
# [20] = system: MCF7 breast
# [21] = system: MOLT-4 leukemia
# [22] = system: NCI-H226 lung
# [23] = system: NCI-H23 lung
# [24] = system: NCI-H460 lung
# [25] = system: NCI-H522 lung
# [26] = system: OVCAR-3 ovarian
# [27] = system: OVCAR-4 ovarian
# [28] = system: OVCAR-5 ovarian
# [29] = system: OVCAR-8 ovarian
# [30] = system: PC-3 prostate
# [31] = system: RXF 393 renal
# [32] = system: SF-268 CNS
# [33] = system: SF-295 CNS
# [34] = system: SF-539 CNS
# [35] = system: SK-MEL-2 melanoma
# [36] = system: SK-MEL-28 melanoma
# [37] = system: SK-MEL-5 melanoma
# [38] = system: SK-OV-3 ovarian
# [39] = system: SN12C renal
# [40] = system: SNB-19 CNS
# [41] = system: SNB-75 CNS
# [42] = system: SR leukemia
# [43] = system: T-47D breast
# [44] = system: TK-10 renal
# [45] = system: U251 CNS
# [46] = system: UACC-257 melanoma
# [47] = system: UACC-62 melanoma
smiles,measurement,setting,value
ClC(Cl)c1nc(-c2ccccc2)n2nc(-c3ccccc3)cc2n1,GI50,[1],8.7 µM
same,TGI,[1],> 100 µM
same,GI50,[2],1.31 µM
same,TGI,[2],2.76 µM
same,GI50,[3],0.572 µM
same,TGI,[3],3.1 µM
same,GI50,[4],> 100 µM
same,TGI,[4],> 100 µM
same,GI50,[5],1.6 µM
same,TGI,[5],7.13 µM
same,GI50,[6],> 100 µM
same,TGI,[6],> 100 µM
same,GI50,[7],0.778 µM
same,TGI,[7],3.42 µM
same,GI50,[8],1.94 µM
same,TGI,[8],5.75 µM
same,GI50,[9],0.573 µM
same,TGI,[9],2.05 µM
same,GI50,[10],1.65 µM
same,TGI,[10],7.69 µM
same,GI50,[11],0.586 µM
same,TGI,[11],5.6 µM
same,GI50,[12],1.41 µM
same,TGI,[12],5.9 µM
same,GI50,[13],1.91 µM
same,TGI,[13],6.46 µM
same,GI50,[14],0.442 µM
same,TGI,[14],> 100 µM
same,GI50,[15],3.06 µM
same,TGI,[15],> 100 µM
same,GI50,[16],2.59 µM
same,TGI,[16],> 100 µM
same,GI50,[17],0.696 µM
same,TGI,[17],2.38 µM
same,GI50,[18],> 100 µM
same,TGI,[18],> 100 µM
same,GI50,[19],3.3 µM
same,TGI,[19],> 100 µM
same,GI50,[20],1.08 µM
same,TGI,[20],> 100 µM
same,GI50,[21],3.33 µM
same,TGI,[21],> 100 µM
same,GI50,[22],48 µM
same,TGI,[22],> 100 µM
same,GI50,[23],1.42 µM
same,TGI,[23],4.09 µM
same,GI50,[24],0.411 µM
same,TGI,[24],1.87 µM
same,GI50,[25],3.63 µM
same,TGI,[25],> 100 µM
same,GI50,[26],1.04 µM
same,TGI,[26],2.68 µM
same,GI50,[27],1.65 µM
same,TGI,[27],5.64 µM
same,GI50,[28],2.31 µM
same,TGI,[28],6.44 µM
same,GI50,[29],1.73 µM
same,TGI,[29],> 100 µM
same,GI50,[30],1.66 µM
same,TGI,[30],4.73 µM
same,GI50,[31],0.533 µM
same,TGI,[31],2.38 µM
same,GI50,[32],2.28 µM
same,TGI,[32],> 100 µM
same,GI50,[33],1.83 µM
same,TGI,[33],5.66 µM
same,GI50,[34],1.78 µM
same,TGI,[34],5.57 µM
same,GI50,[35],31.6 µM
same,TGI,[35],> 100 µM
same,GI50,[36],1.65 µM
same,TGI,[36],3.1 µM
same,GI50,[37],> 100 µM
same,TGI,[37],> 100 µM
same,GI50,[38],2.7 µM
same,TGI,[38],9.61 µM
same,GI50,[39],> 100 µM
same,TGI,[39],> 100 µM
same,GI50,[40],1.55 µM
same,TGI,[40],6.85 µM
same,GI50,[41],1.12 µM
same,TGI,[41],5.24 µM
same,GI50,[42],1.02 µM
same,TGI,[42],5.61 µM
same,GI50,[43],2.13 µM
same,TGI,[43],> 100 µM
same,GI50,[44],1.87 µM
same,TGI,[44],5.7 µM
same,GI50,[45],0.758 µM
same,TGI,[45],6.44 µM
same,GI50,[46],2.1 µM
same,TGI,[46],5.19 µM
same,GI50,[47],3.5 µM
same,TGI,[47],> 100 µM

# Source: PubChem BioAssay (NCI)
